# Tests used:
# [1] = target: T1, Human Indoleamine 2,3-dioxygenase (IDO) (Homo sapiens, UniProt P14902); test: Human IDO enzymatic assay (kynurenine level); format: biochemical; conditions: 6 nM IDO, 10 μM L-Trp; geometric mean; read-out: IDO1 GMean: IC50 (μM) (Biochemical Assay)
# T1 construct: His tag (N); made in house; host or cells: E. coli
# Summary of the method: (§1)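 Compound is mixed with His-tagged enzyme from E. coli in pH 6.5 phosphate buffer containing ascorbate, methylene blue and catalase, at room temperature. IDO uses 6 nM enzyme and 10 μM Trp for 20 min. TDO uses 1 nM enzyme and 350 μM Trp for 70 min. TCA stops the reaction, and IC50 is derived from kynurenine levels.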
# [2] = target: T2, human TDO (TDO-expressing HEK293 cells) (Homo sapiens, UniProt P48775); test: Cell based kynurenine assay, TDO-expressing HEK293 cell clones; conditions: TDO-expressing HEK293 cells, 24 hours incubation; geometric mean; read-out: HEK293 TDO Kynurenine GMean IC50 (μM) (Cellular Assay)
# T2 construct: expressed in transfected cells
# T2 sequence (P48775 whole entry): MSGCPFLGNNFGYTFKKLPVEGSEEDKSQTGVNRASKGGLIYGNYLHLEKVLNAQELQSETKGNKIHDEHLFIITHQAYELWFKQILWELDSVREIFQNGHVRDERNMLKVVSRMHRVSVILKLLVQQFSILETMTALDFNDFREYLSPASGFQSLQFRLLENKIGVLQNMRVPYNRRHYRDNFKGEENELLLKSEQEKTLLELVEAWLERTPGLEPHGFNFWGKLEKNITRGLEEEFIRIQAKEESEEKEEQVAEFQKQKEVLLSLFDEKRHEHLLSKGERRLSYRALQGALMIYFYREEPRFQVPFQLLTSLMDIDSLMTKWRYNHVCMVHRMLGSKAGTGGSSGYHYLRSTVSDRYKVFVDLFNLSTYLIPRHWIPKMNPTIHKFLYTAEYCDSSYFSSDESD
# Summary of the method: (§2)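 HEK293 stable clones (hIDO1 or hTDO, CMV-driven; G418-selected); 2.5×10^4 cells/well; compound serial dilution, 24 h, 37 °C, 5% CO2; supernatant kynurenine; IC50 by nonlinear fit.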
# [3] = target: T3, human IDO (IDO1-expressing HEK293 cells) (Homo sapiens, UniProt P14902); test: Cell based kynurenine assay, IDO1-expressing HEK293 cell clones; conditions: IDO1-expressing HEK293 cells, 24 hours incubation; geometric mean; read-out: HEK293 IDO1 Kynurenine GMean IC50 (μM) (Cellular Assay)
# T3 construct: expressed in transfected cells
# T3 sequence (P14902 whole entry): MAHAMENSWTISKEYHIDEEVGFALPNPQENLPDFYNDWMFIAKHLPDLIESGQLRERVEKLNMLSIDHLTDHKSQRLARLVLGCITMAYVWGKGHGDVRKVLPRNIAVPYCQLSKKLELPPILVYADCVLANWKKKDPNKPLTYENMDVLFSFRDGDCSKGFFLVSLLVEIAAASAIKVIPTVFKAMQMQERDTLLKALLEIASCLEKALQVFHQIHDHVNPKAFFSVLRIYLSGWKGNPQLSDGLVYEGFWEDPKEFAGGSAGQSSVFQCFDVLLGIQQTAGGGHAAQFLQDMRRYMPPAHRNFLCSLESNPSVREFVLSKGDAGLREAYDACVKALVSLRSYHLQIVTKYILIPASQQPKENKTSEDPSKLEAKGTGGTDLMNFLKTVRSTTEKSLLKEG
# Summary of the method: as §2
# [4] = target: T4, Human Tryptophan 2,3-dioxygenase (TDO) (Homo sapiens, UniProt P48775); test: Human TDO enzymatic assay (kynurenine level); format: biochemical; conditions: 1 nM TDO, 350 μM L-Trp; geometric mean; read-out: TDO GMean: IC50 (μM) (Biochemical Assay)
# T4 construct: His tag (N); made in house; host or cells: E. coli
# T4 sequence (P48775 whole entry): as the sequence (P48775 whole entry) above
# Summary of the method: as §1
# T1 sequence (P14902 whole entry): as the sequence (P14902 whole entry) above
IC50 [1] [µM],IC50 [2] [µM],IC50 [3] [µM],IC50 [4] [µM],Compound
0.0001 to 10,0.0001 to 10,0.0001 to 10,0.0001 to 10,"CC(=O)N1C[C@H]2CC[C@@H](C1)[C@H]2C(F)(F)C(O)c1cc(Cl)cc2cn[nH]c12 (stereo partly drawn) [Compound P-0302, 1-((1R,5S,8s)-8-(2-(5-chloro-1H-indazol-7-yl)-1,1-difluoro-2-hydroxyethyl)-3-azabicyclo[3.2.1]octan-3-yl)ethan-1-one]"
0.0001 to 10,0.0001 to 10,0.0001 to 10,0.0001 to 10,"CC(=O)N1C[C@H]2CC[C@@H](C1)[C@@H]2C(F)(F)C(O)c1cc(Cl)cc2cn[nH]c12 (stereo partly drawn) [Compound P-0303, 1-((1R,5S,8s)-8-(2-(5-chloro-1H-indazol-7-yl)-1,1-difluoro-2-hydroxyethyl)-3-azabicyclo[3.2.1]octan-3-yl)ethan-1-one]"
0.0001 to 10,0.0001 to 10,0.0001 to 10,0.0001 to 10,"CCS(=O)(=O)N1CCC(C(C)(C)C(O)c2cc(Cl)cc3cn[nH]c23)CC1 (centres unmarked) [Compound P-0304, 1-(5-chloro-1H-indazol-7-yl)-2-(1-(ethylsulfonyl)piperidin-4-yl)-2-methylpropan-1-ol]"
0.0001 to 10,0.0001 to 10,0.0001 to 10,0.0001 to 10,"CCCS(=O)(=O)N1CCC(C(C)(C)C(O)c2cc(Cl)cc3cn[nH]c23)CC1 (centres unmarked) [Compound P-0305, 1-(5-chloro-1H-indazol-7-yl)-2-methyl-2-(1-(propylsulfonyl)piperidin-4-yl)propan-1-ol]"
0.0001 to 10,0.0001 to 10,0.0001 to 10,0.0001 to 10,CC(C)(C1CCN(S(=O)(=O)C2CC2)CC1)C(O)c1cc(Cl)cc2cn[nH]c12 (centres unmarked) [Compound P-0306]
0.0001 to 10,0.0001 to 10,0.0001 to 10,0.0001 to 10,"CC(C)S(=O)(=O)N1CCC(C(C)(C)C(O)c2cc(Cl)cc3cn[nH]c23)CC1 (centres unmarked) [Compound P-0307, 1-(5-chloro-1H-indazol-7-yl)-2-(1-(isopropylsulfonyl)piperidin-4-yl)-2-methylpropan-1-ol]"
0.0001 to 10,0.0001 to 10,0.0001 to 10,0.0001 to 10,"CN(C)S(=O)(=O)N1CCC(C(C)(C)C(O)c2cc(Cl)cc3cn[nH]c23)CC1 (centres unmarked) [Compound P-0308, 4-(1-(5-chloro-1H-indazol-7-yl)-1-hydroxy-2-methylpropan-2-yl)-N,N-dimethylpiperidine-1-sulfonamide]"
0.0001 to 10,0.0001 to 10,0.0001 to 10,0.0001 to 10,"CC(C)(C1CCN(S(=O)(=O)c2ccccc2)CC1)C(O)c1cc(Cl)cc2cn[nH]c12 (centres unmarked) [Compound P-0309, 1-(5-chloro-1H-indazol-7-yl)-2-methyl-2-(1-(phenylsulfonyl)piperidin-4-yl)propan-1-ol]"
0.0001 to 10,0.0001 to 10,0.0001 to 10,0.0001 to 10,"CC(=O)N1CCC(C(C)(C)C(O)c2cc(Cl)cc3cn[nH]c23)CC1 (centres unmarked) [Compound P-0310, 1-(4-(1-(5-chloro-1H-indazol-7-yl)-1-hydroxy-2-methylpropan-2-yl)piperidin-1-yl)ethan-1-one]"
0.0001 to 10,0.0001 to 10,0.0001 to 10,0.0001 to 10,"CCC(=O)N1CCC(C(C)(C)C(O)c2cc(Cl)cc3cn[nH]c23)CC1 (centres unmarked) [Compound P-0311, 1-(4-(1-(5-chloro-1H-indazol-7-yl)-1-hydroxy-2-methylpropan-2-yl)piperidin-1-yl)propan-1-one]"
0.0001 to 10,0.0001 to 10,0.0001 to 10,0.0001 to 10,"CC(C)(C1CCN(C(=O)C2CC2)CC1)C(O)c1cc(Cl)cc2cn[nH]c12 (centres unmarked) [Compound P-0312, (4-(1-(5-chloro-1H-indazol-7-yl)-1-hydroxy-2-methylpropan-2-yl)piperidin-1-yl)(cyclopropyl) methanone]"
0.0001 to 10,0.0001 to 10,0.0001 to 10,0.0001 to 10,"CNC(=O)N1CCC(C(C)(C)C(O)c2cc(Cl)cc3cn[nH]c23)CC1 (centres unmarked) [Compound P-0314, 4-(1-(5-chloro-1H-indazol-7-yl)-1-hydroxy-2-methylpropan-2-yl)-N-methylpiperidine-1-carboxamide]"
0.0001 to 10,0.0001 to 10,0.0001 to 10,0.0001 to 10,"CC(C)NC(=O)N1CCC(C(C)(C)C(O)c2cc(Cl)cc3cn[nH]c23)CC1 (centres unmarked) [Compound P-0315, 4-(1-(5-chloro-1H-indazol-7-yl)-1-hydroxy-2-methylpropan-2-yl)-N-isopropylpiperidine-1-carboxamide]"
0.0001 to 10,0.0001 to 10,0.0001 to 10,0.0001 to 10,"CC(C)(C1CCN(C(=O)NC2CCCC2)CC1)C(O)c1cc(Cl)cc2cn[nH]c12 (centres unmarked) [Compound P-0316, 4-(1-(5-chloro-1H-indazol-7-yl)-1-hydroxy-2-methylpropan-2-yl)-N-cyclopentylpiperidine-1-carboxamide]"
0.0001 to 10,0.0001 to 10,0.0001 to 10,0.0001 to 10,"CC(C)(C1CCN(C(=O)Nc2ccccc2)CC1)C(O)c1cc(Cl)cc2cn[nH]c12 (centres unmarked) [Compound P-0317, 4-(1-(5-chloro-1H-indazol-7-yl)-1-hydroxy-2-methylpropan-2-yl)-N-phenylpiperidine-1-carboxamide]"
0.0001 to 10,0.0001 to 10,0.0001 to 10,0.0001 to 10,"CN1CCC(C(C)(C)C(O)c2cc(Cl)cc3cn[nH]c23)CC1 (centres unmarked) [Compound P-0318, 1-(5-chloro-1H-indazol-7-yl)-2-methyl-2-(1-methylpiperidin-4-yl)propan-1-ol]"
0.0001 to 10,0.0001 to 10,0.0001 to 10,0.0001 to 10,"CC(C)(C1CCN(C2CC2)CC1)C(O)c1cc(Cl)cc2cn[nH]c12 (centres unmarked) [Compound P-0319, 1-(5-chloro-1H-indazol-7-yl)-2-(1-cyclopropylpiperidin-4-yl)-2-methylpropan-1-ol]"
0.0001 to 10,0.0001 to 10,0.0001 to 10,0.0001 to 10,"CC(C)(C1CCN(C2CCCC2)CC1)C(O)c1cc(Cl)cc2cn[nH]c12 (centres unmarked) [Compound P-0320, 1-(5-chloro-1H-indazol-7-yl)-2-(1-cyclopentylpiperidin-4-yl)-2-methylpropan-1-ol]"
0.0001 to 10,0.0001 to 10,0.0001 to 10,0.0001 to 10,"COC(=O)N1CCC(C(C)(C)C(O)c2cc(Cl)cc3cn[nH]c23)CC1 (centres unmarked) [Compound P-0321, methyl 4-(1-(5-chloro-1H-indazol-7-yl)-1-hydroxy-2-methylpropan-2-yl)piperidine-1-carboxylate]"
0.0001 to 10,0.0001 to 10,0.0001 to 10,0.0001 to 10,"CCOC(=O)N1CCC(C(C)(C)C(O)c2cc(Cl)cc3cn[nH]c23)CC1 (centres unmarked) [Compound P-0322, ethyl 4-(1-(5-chloro-1H-indazol-7-yl)-1-hydroxy-2-methylpropan-2-yl)piperidine-1-carboxylate]"
0.0001 to 10,0.0001 to 10,0.0001 to 10,0.0001 to 10,"CC(C)OC(=O)N1CCC(C(C)(C)C(O)c2cc(Cl)cc3cn[nH]c23)CC1 (centres unmarked) [Compound P-0323, isopropyl 4-(1-(5-chloro-1H-indazol-7-yl)-1-hydroxy-2-methylpropan-2-yl)piperidine-1-carboxylate]"
0.0001 to 10,0.0001 to 10,0.0001 to 10,0.0001 to 10,"CC(C)(C1CCN(S(N)(=O)=O)CC1)C(O)c1cc(Cl)cc2cn[nH]c12 (centres unmarked) [Compound P-0324, 4-(1-(5-chloro-1H-indazol-7-yl)-1-hydroxy-2-methylpropan-2-yl)piperidine-1-sulfonamide]"
0.0001 to 10,0.0001 to 10,0.0001 to 10,0.0001 to 10,"CC(C)(C1CCN(C(N)=O)CC1)C(O)c1cc(Cl)cc2cn[nH]c12 (centres unmarked) [Compound P-0325, 4-(1-(5-chloro-1H-indazol-7-yl)-1-hydroxy-2-methylpropan-2-yl)piperidine-1-carboxamide]"
0.0001 to 10,0.0001 to 10,0.0001 to 10,0.0001 to 10,"COC(=O)C12CCC(C(O)c3cc(Cl)cc4cn[nH]c34)(CC1)CC2 (centres unmarked) [Compound P-0326, methyl 4-((5-chloro-1H-indazol-7-yl)(hydroxy)methyl)bicyclo [2.2.2]octane-1-carboxylate]"
0.0001 to 10,0.0001 to 10,0.0001 to 10,0.0001 to 10,"O=C(O)C12CCC(C(O)c3cc(Cl)cc4cn[nH]c34)(CC1)CC2 (centres unmarked) [Compound P-0327, 4-((5-chloro-1H-indazol-7-yl)(hydroxy)methyl)bicyclo [2.2.2]octane-1-carboxylic acid]"
0.0001 to 10,0.0001 to 10,0.0001 to 10,0.0001 to 10,"OCC12CCC(C(O)c3cc(Cl)cc4cn[nH]c34)(CC1)CC2 (centres unmarked) [Compound P-0328, (5-chloro-1H-indazol-7-yl)(4-(hydroxymethyl)bicyclo[2.2.2]octan-1-yl)methanol]"

# From patent US10508085B2, “Compounds and methods for IDO and TDO modulation, and indications therefor” (Plexxikon Inc., priority 2016, dated 2019)
